Experimental data reported in patent US20250230193A1, “CYCLIC COMPOUND HAVING SELECTIVE KRAS INHIBITORY EFFECT ON HRAS AND NRAS” (CHUGAI SEIYAKU KABUSHIKI KAISHA, priority 2022, published 2025).

Columns and labels:
[1] = biological target: GDP-bound NRAS wild-type protein (Homo sapiens, UniProt P01111); assay: Binding to NRAS by surface plasmon resonance (SPR), Single Cycle Kinetics; settings: KD ratio, GDP-bound NRAS wild-type vs GDP-bound KRAS wild-type, SPR
[2] = biological target: GDP-bound HRAS wild-type protein (Homo sapiens, UniProt P01112); assay: Binding to HRAS by surface plasmon resonance (SPR), Single Cycle Kinetics; settings: KD ratio, GDP-bound HRAS wild-type vs GDP-bound KRAS wild-type, SPR
GDP-bound HRAS wild-type protein, sequence (P01112 whole entry): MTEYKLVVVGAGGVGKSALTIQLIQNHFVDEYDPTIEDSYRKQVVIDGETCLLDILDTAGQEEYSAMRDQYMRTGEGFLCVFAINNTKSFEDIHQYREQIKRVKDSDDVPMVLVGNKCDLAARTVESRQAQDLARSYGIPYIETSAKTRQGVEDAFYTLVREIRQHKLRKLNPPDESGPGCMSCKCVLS

GDP-bound NRAS wild-type protein, sequence (P01111 whole entry): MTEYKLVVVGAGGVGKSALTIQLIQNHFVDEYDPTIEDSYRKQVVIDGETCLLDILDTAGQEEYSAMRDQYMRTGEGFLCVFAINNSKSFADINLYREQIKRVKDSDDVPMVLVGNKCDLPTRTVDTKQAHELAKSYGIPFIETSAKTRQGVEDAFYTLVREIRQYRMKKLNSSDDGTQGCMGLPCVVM

| SMILES | NRAS/KRAS (ratio of KD value with respect to NRAS to KD value with respect to KRAS) [1] | HRAS/KRAS (ratio of KD value with respect to HRAS to KD value with respect to KRAS) [2] |
| --- | --- | --- |
| CCO[C@@H]1C[C@H]2C(=O)NC3(CCC3)C(=O)N(C)[C@@H](C3CCCC3)C(=O)N(C)[C@H](C(=O)N(C)C)CC(=O)N(C)[C@@H](C(C)C)C(=O)N[C@@H]([C@@H](C)CC)C(=O)N(C)CC(=O)N(C)[C@H]3C/C=C\CCN(C3=O)[C@@H](Cc3ccc(C(F)(F)F)cc3)C(=O)N(C)CC(=O)N[C@@H](CCc3cc(F)c(C(F)(F)F)c(F)c3)C(=O)N2C1 [PP1109] | A (a compound having 10 or more and less than 20 is denoted as A) | B (a compound having 3 or more and less than 10 is denoted as B) |
| CCC[C@H]1C(=O)N[C@@H]([C@@H](C)CC)C(=O)N(C)CC(=O)N(C)[C@H]2C/C=C\CCN(C2=O)[C@@H](Cc2ccc(C(F)(F)F)cc2)C(=O)N(C)CC(=O)N[C@@H](CCc2cc(F)c(C(F)(F)F)c(F)c2)C(=O)N2C[C@H](OCC)C[C@H]2C(=O)NC2(CCC2)C(=O)N(C)[C@@H](C2CCCC2)C(=O)N(C)[C@H](C(=O)N(C)C)CC(=O)N1C [PP1110] | A (a compound having 10 or more and less than 20 is denoted as A) | B (a compound having 3 or more and less than 10 is denoted as B) |
| CCO[C@@H]1C[C@H]2C(=O)NC3(CCC3)C(=O)N(C)[C@@H](C3CCCC3)C(=O)N(C)[C@H](C(=O)N(C)C)CC(=O)N(C)[C@@H](CC3CC3)C(=O)N[C@@H]([C@@H](C)CC)C(=O)N(C)CC(=O)N(C)[C@H]3C/C=C\CCN(C3=O)[C@@H](Cc3ccc(C(F)(F)F)cc3)C(=O)N(C)CC(=O)N[C@@H](CCc3cc(F)c(C(F)(F)F)c(F)c3)C(=O)N2C1 [PP1111] | A (a compound having 10 or more and less than 20 is denoted as A) | A (a compound having 10 or more and less than 20 is denoted as A) |
| CCO[C@@H]1C[C@H]2C(=O)NC3(CCC3)C(=O)N(C)[C@@H](C3CCCC3)C(=O)N(C)[C@H](C(=O)N(C)C)CC(=O)N(C)[C@@H](CC3CCCC3)C(=O)N[C@@H]([C@@H](C)CC)C(=O)N(C)CC(=O)N(C)[C@H]3C/C=C\CCN(C3=O)[C@@H](Cc3ccc(C(F)(F)F)cc3)C(=O)N(C)CC(=O)N[C@@H](CCc3cc(F)c(C(F)(F)F)c(F)c3)C(=O)N2C1 [PP1112] | A (a compound having 10 or more and less than 20 is denoted as A) | B (a compound having 3 or more and less than 10 is denoted as B) |
| CCO[C@@H]1C[C@H]2C(=O)NC3(CCC3)C(=O)N(C)[C@@H](C3CCCC3)C(=O)N(C)[C@H](C(=O)N(C)C)CC(=O)N(C)[C@@H](COC)C(=O)N[C@@H]([C@@H](C)CC)C(=O)N(C)CC(=O)N(C)[C@H]3C/C=C\CCN(C3=O)[C@@H](Cc3ccc(C(F)(F)F)cc3)C(=O)N(C)CC(=O)N[C@@H](CCc3cc(F)c(C(F)(F)F)c(F)c3)C(=O)N2C1 [PP1113] | A (a compound having 10 or more and less than 20 is denoted as A) | A (a compound having 10 or more and less than 20 is denoted as A) |
| C=CC[C@H]1C(=O)N[C@@H]([C@@H](C)CC)C(=O)N(C)CC(=O)N(C)[C@H]2C/C=C\CCN(C2=O)[C@@H](Cc2ccc(C(F)(F)F)cc2)C(=O)N(C)CC(=O)N[C@@H](CCc2cc(F)c(C(F)(F)F)c(F)c2)C(=O)N2C[C@H](OCC)C[C@H]2C(=O)NC2(CCC2)C(=O)N(C)[C@@H](C2CCCC2)C(=O)N(C)[C@H](C(=O)N(C)C)CC(=O)N1C [PP1114] | A (a compound having 10 or more and less than 20 is denoted as A) | A (a compound having 10 or more and less than 20 is denoted as A) |
| C#CC[C@H]1C(=O)N[C@@H]([C@@H](C)CC)C(=O)N(C)CC(=O)N(C)[C@H]2C/C=C\CCN(C2=O)[C@@H](Cc2ccc(C(F)(F)F)cc2)C(=O)N(C)CC(=O)N[C@@H](CCc2cc(F)c(C(F)(F)F)c(F)c2)C(=O)N2C[C@H](OCC)C[C@H]2C(=O)NC2(CCC2)C(=O)N(C)[C@@H](C2CCCC2)C(=O)N(C)[C@H](C(=O)N(C)C)CC(=O)N1C [PP1115] | A (a compound having 10 or more and less than 20 is denoted as A) | A (a compound having 10 or more and less than 20 is denoted as A) |
| CCO[C@@H]1C[C@H]2C(=O)NC3(CCC3)C(=O)N(C)[C@@H](C3CCCC3)C(=O)N(C)[C@H](C(=O)N(C)C)CC(=O)N(C)[C@@H](Cc3ccccc3)C(=O)N[C@@H]([C@@H](C)CC)C(=O)N(C)CC(=O)N(C)[C@H]3C/C=C\CCN(C3=O)[C@@H](Cc3ccc(C(F)(F)F)cc3)C(=O)N(C)CC(=O)N[C@@H](CCc3cc(F)c(C(F)(F)F)c(F)c3)C(=O)N2C1 [PP1116] | A (a compound having 10 or more and less than 20 is denoted as A) | A (a compound having 10 or more and less than 20 is denoted as A) |
| CCO[C@@H]1C[C@H]2C(=O)NC3(CCC3)C(=O)N(C)[C@@H](C3CCCC3)C(=O)N(C)[C@H](C(=O)N(C)C)CC(=O)N(C)[C@@H](CC(C)(C)C)C(=O)N[C@@H]([C@@H](C)CC)C(=O)N(C)CC(=O)N(C)[C@H]3C/C=C\CCN(C3=O)[C@@H](Cc3ccc(C(F)(F)F)cc3)C(=O)N(C)CC(=O)N[C@@H](CCc3cc(F)c(C(F)(F)F)c(F)c3)C(=O)N2C1 [PP1117] | A (a compound having 10 or more and less than 20 is denoted as A) | A (a compound having 10 or more and less than 20 is denoted as A) |
| CCO[C@@H]1C[C@H]2C(=O)NC3(CCC3)C(=O)N(C)[C@@H](C3CCCC3)C(=O)N(C)[C@H](C(=O)N(C)C)CC(=O)N(C)[C@@H](CC3CCC3)C(=O)N[C@@H]([C@@H](C)CC)C(=O)N(C)CC(=O)N(C)[C@H]3C/C=C\CCN(C3=O)[C@@H](Cc3ccc(C(F)(F)F)cc3)C(=O)N(C)CC(=O)N[C@@H](CCc3cc(F)c(C(F)(F)F)c(F)c3)C(=O)N2C1 [PP1118] | A (a compound having 10 or more and less than 20 is denoted as A) | B (a compound having 3 or more and less than 10 is denoted as B) |
| CCO[C@@H]1C[C@H]2C(=O)NC3(CCC3)C(=O)N(C)[C@@H](C3CCCC3)C(=O)N(C)[C@H](C(=O)N(C)C)CC(=O)N(C)[C@@H](CSC)C(=O)N[C@@H]([C@@H](C)CC)C(=O)N(C)CC(=O)N(C)[C@H]3C/C=C\CCN(C3=O)[C@@H](Cc3ccc(C(F)(F)F)cc3)C(=O)N(C)CC(=O)N[C@@H](CCc3cc(F)c(C(F)(F)F)c(F)c3)C(=O)N2C1 [PP1119] | A (a compound having 10 or more and less than 20 is denoted as A) | A (a compound having 10 or more and less than 20 is denoted as A) |
| CCO[C@@H]1C[C@H]2C(=O)NC3(CCC3)C(=O)N(C)[C@@H](C3CCCC3)C(=O)N(C)[C@H](C(=O)N(C)C)CC(=O)N(C)[C@@H](CC(F)F)C(=O)N[C@@H]([C@@H](C)CC)C(=O)N(C)CC(=O)N(C)[C@H]3C/C=C\CCN(C3=O)[C@@H](Cc3ccc(C(F)(F)F)cc3)C(=O)N(C)CC(=O)N[C@@H](CCc3cc(F)c(C(F)(F)F)c(F)c3)C(=O)N2C1 [PP1120] | A (a compound having 10 or more and less than 20 is denoted as A) | A (a compound having 10 or more and less than 20 is denoted as A) |
| CCO[C@@H]1C[C@H]2C(=O)NC3(CCC3)C(=O)N(C)[C@@H](C3CCCC3)C(=O)N(C)[C@H](C(=O)N(C)C)CC(=O)N(C)[C@@H](CCC(F)F)C(=O)N[C@@H]([C@@H](C)CC)C(=O)N(C)CC(=O)N(C)[C@H]3C/C=C\CCN(C3=O)[C@@H](Cc3ccc(C(F)(F)F)cc3)C(=O)N(C)CC(=O)N[C@@H](CCc3cc(F)c(C(F)(F)F)c(F)c3)C(=O)N2C1 [PP1121] | A (a compound having 10 or more and less than 20 is denoted as A) | A (a compound having 10 or more and less than 20 is denoted as A) |
| CCO[C@@H]1C[C@H]2C(=O)NC3(CCC3)C(=O)N(C)[C@@H](C3CCCC3)C(=O)N(C)[C@H](C(=O)N(C)C)CC(=O)N(C)[C@@H](CCC(=O)N(C)C)C(=O)N[C@@H]([C@@H](C)CC)C(=O)N(C)CC(=O)N(C)[C@H]3C/C=C\CCN(C3=O)[C@@H](Cc3ccc(C(F)(F)F)cc3)C(=O)N(C)CC(=O)N[C@@H](CCc3cc(F)c(C(F)(F)F)c(F)c3)C(=O)N2C1 [PP1122] | A (a compound having 10 or more and less than 20 is denoted as A) | B (a compound having 3 or more and less than 10 is denoted as B) |
| CCO[C@@H]1C[C@H]2C(=O)NC3(CCC3)C(=O)N(C)[C@@H](C3CCCC3)C(=O)N(C)[C@H](C(=O)N(C)C)CC(=O)N(C)[C@@H](Cc3cccs3)C(=O)N[C@@H]([C@@H](C)CC)C(=O)N(C)CC(=O)N(C)[C@H]3C/C=C\CCN(C3=O)[C@@H](Cc3ccc(C(F)(F)F)cc3)C(=O)N(C)CC(=O)N[C@@H](CCc3cc(F)c(C(F)(F)F)c(F)c3)C(=O)N2C1 [PP1123] | A (a compound having 10 or more and less than 20 is denoted as A) | B (a compound having 3 or more and less than 10 is denoted as B) |
| CCO[C@@H]1C[C@H]2C(=O)NC3(CCC3)C(=O)N(C)[C@@H](C3CCCC3)C(=O)N(C)[C@H](C(=O)N(C)C)CC(=O)N(C)[C@@H](CC(F)(F)F)C(=O)N[C@@H]([C@@H](C)CC)C(=O)N(C)CC(=O)N(C)[C@H]3C/C=C\CCN(C3=O)[C@@H](Cc3ccc(C(F)(F)F)cc3)C(=O)N(C)CC(=O)N[C@@H](CCc3cc(F)c(C(F)(F)F)c(F)c3)C(=O)N2C1 [PP1124] | A (a compound having 10 or more and less than 20 is denoted as A) | B (a compound having 3 or more and less than 10 is denoted as B) |
